Assay results from patent US9951046B2, “TRPA1 modulators” (Algomedix, Inc., priority 2014, dated 2018).
pIC50: −log10 of the molar value. Read-outs that look alike come from different tables or passages of the source.

Target: T1, human TRPA1 (Homo sapiens, UniProt O75762)
T1 construct: expressed in transfected cells
Assay: Cell-based functional intracellular calcium ([Ca2+]i) assay, Fluo-4/Fluo-8, FlexStation, challenge with reference TRPA1 agonist (FFA, AITC or 4-HNE)
Description: A stable HEK293 cell line that expresses human TRPA1 in an inducible manner was employed in this assay. […] The expression of TRPA1 was induced by including 1 μg/ml doxycycline in the culture medium. For the induced cells, ruthenium red (5 μM) was also added to minimize the constitutive TRPA1 channel activity and cells were used 14-18 hrs after induction. To measure [Ca^2+]i changes, cells were seeded in wells of 96-well plates at ˜100,000 cells/well and grown for 14-18 hrs to reach confluency. To prevent cell loss from subsequent washing, the wells were treated with 20 μg/ml polyornithine (MW>30,000, Sigma, St Louis, Mo.) for >15 min and rinsed once with Hank's balanced salt solution without Mg^2+ and Ca^2+. […] In some experiments, Fluo-8-AM was used instead of Fluo-4-AM as the calcium-sensitive fluorescent probe. Probenecid (2 mM) was included in all solutions to prevent the leakage of Fluo-4 or Fluo-8 from the cells. At the end of the incubation, cells were washed three times with ECS and placed in 80 μL of the same solution. Fluorescence changes were measured using a fluid handling integrated fluorescence plate reader, FlexStation (Molecular Devices, Sunnyvale, Calif.). Stock solutions of test compounds were initially solubilized in 100% DMSO and then serially diluted to achieve the desired final concentration. […] Drugs were diluted into ECS at 2× or 3× the desired final concentrations and delivered to the sample plate by an integrated robotic 8-channel pipettor at preprogrammed time points. […] Experiments were performed at 20-25° C. For certain experiments, 0.1% BSA was included with the cells and test compounds.
The kinetic data obtained at each test concentration of drug represents a series of fluorescent intensities as a function of time.
Using a sequential addition protocol, test compounds were initially applied to the cells loaded with Fluo-4 or Fluo-8 and fluorescence changes in each well monitored for 2.5 min. The plate was read again in a kinetic mode after a 15-30 min incubation with the test compounds after obtaining baseline values (about 30 s) and subsequent addition of challenge with a reference TRPA1 agonist. Reference TRPA1 agonists in testing each compound included at least one of flufenamic acid (FFA), allyl isothiocyanate (AITC) and 4-hydroxynonenal (4-HNE).
Antagonist activity can be expressed in terms of IC50 with respect to TRPA1 and agonist activity can be expressed in terms of EC50 with respect to TRPA1.

[1] = HEK293 cells expressing human TRPA1, IC50 class after addition of reference TRPA1 agonist (FFA, AITC or 4-HNE), read-out: human TRPA1-HEK Activity

T1 sequence (O75762 whole entry): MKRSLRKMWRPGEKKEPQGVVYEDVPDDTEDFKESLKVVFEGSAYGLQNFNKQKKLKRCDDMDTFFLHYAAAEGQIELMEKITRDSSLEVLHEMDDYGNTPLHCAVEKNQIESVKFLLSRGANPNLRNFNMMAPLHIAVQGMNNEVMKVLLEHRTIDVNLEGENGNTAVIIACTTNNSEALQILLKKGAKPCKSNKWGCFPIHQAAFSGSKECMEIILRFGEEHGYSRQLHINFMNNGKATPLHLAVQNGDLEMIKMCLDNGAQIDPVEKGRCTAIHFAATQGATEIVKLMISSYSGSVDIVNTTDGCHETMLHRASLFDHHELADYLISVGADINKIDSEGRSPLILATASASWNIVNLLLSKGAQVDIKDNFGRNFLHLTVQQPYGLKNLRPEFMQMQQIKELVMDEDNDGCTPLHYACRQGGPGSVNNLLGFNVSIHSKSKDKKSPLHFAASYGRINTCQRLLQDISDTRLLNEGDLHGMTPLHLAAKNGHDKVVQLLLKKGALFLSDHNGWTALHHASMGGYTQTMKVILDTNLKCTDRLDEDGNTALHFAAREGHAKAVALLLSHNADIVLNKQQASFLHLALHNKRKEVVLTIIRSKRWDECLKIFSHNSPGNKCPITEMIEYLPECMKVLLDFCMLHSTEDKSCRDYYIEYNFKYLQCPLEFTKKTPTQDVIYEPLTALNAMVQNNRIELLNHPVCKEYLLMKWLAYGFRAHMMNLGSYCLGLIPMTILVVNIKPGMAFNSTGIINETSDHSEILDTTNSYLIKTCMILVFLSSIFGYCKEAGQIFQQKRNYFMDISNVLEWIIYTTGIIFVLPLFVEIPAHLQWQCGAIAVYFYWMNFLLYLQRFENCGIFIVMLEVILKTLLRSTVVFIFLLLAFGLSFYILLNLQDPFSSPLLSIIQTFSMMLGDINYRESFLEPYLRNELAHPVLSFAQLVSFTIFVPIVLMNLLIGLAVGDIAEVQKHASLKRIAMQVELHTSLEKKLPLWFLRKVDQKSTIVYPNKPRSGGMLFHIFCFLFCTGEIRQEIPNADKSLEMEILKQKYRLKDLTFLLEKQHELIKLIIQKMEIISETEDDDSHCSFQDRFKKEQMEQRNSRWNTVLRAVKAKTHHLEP

SMILES	pIC50 [1]	pIC50
Cn1c(=O)c(=O)n(C)c2cc(NC(=O)c3cc(-c4ccncc4)n(-c4ccc(F)c(F)c4)n3)ccc21 [Compound 91]	< 4.60	
O=C(Nc1ccc2c(c1)COC2=O)c1cc(-c2ccncc2)n(-c2ccc(F)c(F)c2)n1 [Compound 92]	< 4.60	
CC1COC2(CCN(C(=O)c3cc(-c4ccncc4)n(-c4ccc(F)c(F)c4)n3)CC2)O1 (stereo not drawn) [Compound 93]		< 4.60
O=C(c1cc(-c2ccncc2)n(-c2ccc(F)c(F)c2)n1)N1CCN2C(=O)OC[C@@H]2C1 [Compound 94]	< 4.60	
O=C(c1cc(-c2ccncc2)n(-c2ccc(F)c(F)c2)n1)N1CCC2(CC1)NCN(c1ccccc1)C2=O [Compound 95]	< 4.60	
CCCC1COC2(CCN(C(=O)c3cc(-c4ccncc4)n(-c4ccc(F)c(F)c4)n3)CC2)O1 (stereo not drawn) [Compound 96]		< 4.60
CN1C(=O)NC2(CCN(C(=O)c3cc(-c4ccncc4)n(-c4ccc(F)c(F)c4)n3)CC2)C1=O [Compound 97]	< 4.60	
O=C(c1cc(-c2ccncc2)n(-c2ccc(C(F)(F)F)c(F)c2)n1)N1CCC(N2C(=O)Cc3ccccc32)CC1 [Compound 98]		4.60 to 5.30
O=C(c1cc(-c2ccncc2)n(-c2ccc(C(F)(F)F)c(F)c2)n1)N1CCC2(CC1)C(=O)NCN2c1ccc(F)cc1 [Compound 99]	5.30 to 9.00	
O=C(c1cc(-c2ccncc2)n(-c2ccc(C(F)(F)F)c(F)c2)n1)N1CCC2(CC1)OCc1ccccc12 [Compound 101]	< 4.60	
O=C1OC2(CCN(C(=O)c3cc(-c4ccncc4)n(-c4ccc(C(F)(F)F)c(F)c4)n3)CC2)c2ccccc21 [Compound 102]	< 4.60	
O=C1OC2(CCN(C(=O)c3cc(-c4ccncc4)n(-c4ccc(C(F)(F)F)c(F)c4)n3)CC2)c2ccc(Cl)cc21 [Compound 103]	< 4.60	
O=C(c1cc(-c2ccncc2)n(-c2ccc(C(F)(F)F)c(F)c2)n1)N1CC(=O)N2CCc3ccccc3C2C1 (stereo not drawn) [Compound 104]	< 4.60	
Cn1c(=O)n(C2CCN(C(=O)c3cc(-c4ccncc4)n(-c4ccc(C(F)(F)F)c(F)c4)n3)CC2)c2ccccc21 [Compound 105]	< 4.60	
O=C(c1cc(-c2ccncc2)n(-c2ccc(C(F)(F)F)c(F)c2)n1)N1CCC(N2C(=O)OC[C@H]2c2ccccc2)CC1 [Compound 106]	< 4.60	
O=C(c1cc(-c2ccncc2)n(-c2ccc(C(F)(F)F)c(F)c2)n1)N1CCC2(CC1)SCCS2 [Compound 107]	< 4.60	
O=C(c1cc(-c2ccncc2)n(-c2ccc(C(F)(F)F)c(F)c2)n1)N1CCC(c2nc3ccccc3o2)CC1 [Compound 108]	< 4.60	
O=C(Nc1ccc2c(c1)OC(F)(F)O2)c1cc(-c2ccncc2)n(-c2ccc(C(F)(F)F)c(F)c2)n1 [Compound 109]	< 4.60	
CN1C(=O)COc2cc(NC(=O)c3cc(-c4ccncc4)n(-c4ccc(C(F)(F)F)c(F)c4)n3)ccc21 [Compound 110]	< 4.60	
O=C1CSC2(CCN(C(=O)c3cc(-c4ccncc4)n(-c4ccc(C(F)(F)F)c(F)c4)n3)CC2)N1 [Compound 111]	< 4.60	
Cn1c(=O)c(=O)n(C)c2cc(NC(=O)c3cc(-c4ccncc4)n(-c4ccc(C(F)(F)F)c(F)c4)n3)ccc21 [Compound 112]	< 4.60	
O=C(Nc1ccc2c(c1)COC2=O)c1cc(-c2ccncc2)n(-c2ccc(C(F)(F)F)c(F)c2)n1 [Compound 113]	< 4.60	
CC1COC2(CCN(C(=O)c3cc(-c4ccncc4)n(-c4ccc(C(F)(F)F)c(F)c4)n3)CC2)O1 (stereo not drawn) [Compound 114]		< 4.60
O=C(c1cc(-c2ccncc2)n(-c2ccc(C(F)(F)F)c(F)c2)n1)N1CCN2C(=O)OC[C@@H]2C1 [Compound 115]	< 4.60	
CCCC1COC2(CCN(C(=O)c3cc(-c4ccncc4)n(-c4ccc(C(F)(F)F)c(F)c4)n3)CC2)O1 (stereo not drawn) [Compound 117]		< 4.60
CN1C(=O)NC2(CCN(C(=O)c3cc(-c4ccncc4)n(-c4ccc(C(F)(F)F)c(F)c4)n3)CC2)C1=O [Compound 118]	< 4.60	
O=C(c1cc(-c2ccncc2)n(-c2ccc(C(F)(F)F)nc2)n1)N1CCC(N2C(=O)Cc3ccccc32)CC1 [Compound 119]		< 4.60
